From ChEMBL document CHEMBL3885861, “Open TG-GATES”

Species: Rattus norvegicus
Assay: Open TG-GATES - Regimen: Daily Repeat
Type: toxicity, organism-based, Sprague-Dawley
Parameters: regimen Daily Repeat, gender Male, age 6 weeks
Conditions: in vivo, po, 50 mg/kg, route gavage, dose level Middle; for APTT / Bas / Eos / Fbg / Hb / Ht / Lym / MCH / MCHC / MCV / Mono / Neu / PT / Plat / RBC / Ret / WBC: tissue Blood; for KIDNEY_L / KIDNEY_R / KIDNEY_TOTAL: tissue Kidney; for LIVER: tissue Liver; for A/G / ALP / ALT / AST / BUN / CRE / Ca / Cl / DBIL / GLC / IP / K / LDH / Na / PL / RALB / TBIL / TC / TG / TP / gamma-GTP: tissue Plasma

In the case of `O=c1ccc2ccccc2o1` [COUMARIN], the TERMINAL_BW (72 h, time 3 day) was 194.4 g, the APTT (72 h, time 3 day) was 14.9 s and the Bas (72 h, time 3 day) was 0%. The Eos (72 h, time 3 day) was 1.2%, the Fbg (72 h, time 3 day) was 201.2 mg/dL and the Hb (72 h, time 3 day) was 13.2 g/dL. For the same molecule, the Ht (72 h, time 3 day) was 40.2%, the Lym (72 h, time 3 day) was 71.6% and the MCH (72 h, time 3 day) was 21.3 pg. For the same molecule, the MCHC (72 h, time 3 day) was 33%, the MCV (72 h, time 3 day) was 64.5 fL and the Mono (72 h, time 3 day) was 6.2%. It also gave a Neu (72 h, time 3 day) of 21%, a PT (72 h, time 3 day) of 11.4 s and a Plat (72 h, time 3 day) of 114.2 x10_4/uL. For the same molecule, the RBC (72 h, time 3 day) was 623.4 x10_4/ul, the Ret (72 h, time 3 day) was 7.4% and the WBC (72 h, time 3 day) was 101.6 x10_2/uL. The KIDNEY_L (72 h, time 3 day) was 0.9 g, the KIDNEY_R (72 h, time 3 day) was 0.9 g and the KIDNEY_TOTAL (72 h, time 3 day) was 1.8 g. The LIVER (72 h, time 3 day) was 10 g, the A/G (72 h, time 3 day) was 1.9 and the ALP (72 h, time 3 day) was 1143 IU/L. The ALT (72 h, time 3 day) was 43.8 IU/L, the AST (72 h, time 3 day) was 65.4 IU/L and the BUN (72 h, time 3 day) was 14.2 mg/dL. It also gave a CRE (72 h, time 3 day) of 0.5 mg/dL, a Ca (72 h, time 3 day) of 10.9 mg/dL and a Cl (72 h, time 3 day) of 106 meq/L. It also gave a DBIL (72 h, time 3 day) of 0.03 mg/dL, a GLC (72 h, time 3 day) of 182.4 mg/dL and an IP (72 h, time 3 day) of 7.6 mg/dL. For the same molecule, the K (72 h, time 3 day) was 5.2 meq/L, the LDH (72 h, time 3 day) was 94 IU/L and the Na (72 h, time 3 day) was 139.4 meq/L. It also gave a PL (72 h, time 3 day) of 150.6 mg/dL, an RALB (72 h, time 3 day) of 3.7 g/dL and a TBIL (72 h, time 3 day) of 0.3 mg/dL. The TC (72 h, time 3 day) was 95.4 mg/dL, the TG (72 h, time 3 day) was 37 mg/dL and the TP (72 h, time 3 day) was 5.7 g/dL. For the same molecule, the gamma-GTP (72 h, time 3 day) was 1.2 IU/L, the TERMINAL_BW ([…], time 7 day) was 221.4 g and the TERMINAL_BW ([…], time 14 day) was 270.1 g. The TERMINAL_BW ([…], time 28 day) was 361.7 g, the APTT ([…], time 7 day) was 16.9 s and the Bas ([…], time 7 day) was 0%. The Eos ([…], time 7 day) was 1%, the Fbg ([…], time 7 day) was 218 mg/dL and the Hb ([…], time 7 day) was 13.4 g/dL. It also gave a Ht ([…], time 7 day) of 39.9%, a Lym ([…], time 7 day) of 82.8% and an MCH ([…], time 7 day) of 21.3 pg. It also gave an MCHC ([…], time 7 day) of 33.4%, an MCV ([…], time 7 day) of 63.9 fL and a Mono ([…], time 7 day) of 3.2%. For the same molecule, the Neu ([…], time 7 day) was 13.4%, the PT ([…], time 7 day) was 11.3 s and the Plat ([…], time 7 day) was 120.8 x10_4/uL. For the same molecule, the RBC ([…], time 7 day) was 625 x10_4/ul, the Ret ([…], time 7 day) was 6.2% and the WBC ([…], time 7 day) was 135.8 x10_2/uL. For the same molecule, the APTT ([…], time 14 day) was 17.5 s, the Bas ([…], time 14 day) was 0% and the Eos ([…], time 14 day) was 0.6%. It also gave a Fbg ([…], time 14 day) of 249 mg/dL, a Hb ([…], time 14 day) of 13.8 g/dL and a Ht ([…], time 14 day) of 41.7%. It also gave a Lym ([…], time 14 day) of 87%, an MCH ([…], time 14 day) of 20.1 pg and an MCHC ([…], time 14 day) of 33.2%. The MCV ([…], time 14 day) was 60.5 fL, the Mono ([…], time 14 day) was 3.8% and the Neu ([…], time 14 day) was 8.8%. It also gave a PT ([…], time 14 day) of 11.3 s, a Plat ([…], time 14 day) of 120.6 x10_4/uL and an RBC ([…], time 14 day) of 689.8 x10_4/ul. The Ret ([…], time 14 day) was 4.8%, the WBC ([…], time 14 day) was 163.9 x10_2/uL and the APTT ([…], time 28 day) was 19 s. For the same molecule, the Bas ([…], time 28 day) was 0%, the Eos ([…], time 28 day) was 1% and the Fbg ([…], time 28 day) was 239.2 mg/dL. For the same molecule, the Hb ([…], time 28 day) was 14.2 g/dL, the Ht ([…], time 28 day) was 42.4% and the Lym ([…], time 28 day) was 81%. For the same molecule, the MCH ([…], time 28 day) was 19.1 pg, the MCHC ([…], time 28 day) was 33.6% and the MCV ([…], time 28 day) was 56.8 fL. It also gave a Mono ([…], time 28 day) of 4.2%, a Neu ([…], time 28 day) of 14.2% and a PT ([…], time 28 day) of 11.6 s. For the same molecule, the Plat ([…], time 28 day) was 109.4 x10_4/uL, the RBC ([…], time 28 day) was 745.8 x10_4/ul and the Ret ([…], time 28 day) was 3.1%. The WBC ([…], time 28 day) was 125.8 x10_2/uL, the KIDNEY_L ([…], time 7 day) was 1 g and the KIDNEY_R ([…], time 7 day) was 1 g. For the same molecule, the KIDNEY_TOTAL ([…], time 7 day) was 2.1 g, the KIDNEY_L ([…], time 14 day) was 1.2 g and the KIDNEY_R ([…], time 14 day) was 1.2 g. It also gave a KIDNEY_TOTAL ([…], time 14 day) of 2.3 g, a KIDNEY_L ([…], time 28 day) of 1.4 g and a KIDNEY_R ([…], time 28 day) of 1.4 g. For the same molecule, the KIDNEY_TOTAL ([…], time 28 day) was 2.7 g, the LIVER ([…], time 7 day) was 11.3 g and the LIVER ([…], time 14 day) was 14.8 g. The LIVER ([…], time 28 day) was 19 g, the A/G ([…], time 7 day) was 2 and the ALP ([…], time 7 day) was 996 IU/L. For the same molecule, the ALT ([…], time 7 day) was 41 IU/L, the AST ([…], time 7 day) was 54.2 IU/L and the BUN ([…], time 7 day) was 15 mg/dL. The CRE ([…], time 7 day) was 0.6 mg/dL, the Ca ([…], time 7 day) was 11 mg/dL and the Cl ([…], time 7 day) was 104.8 meq/L. The DBIL ([…], time 7 day) was 0.04 mg/dL, the GLC ([…], time 7 day) was 193.6 mg/dL and the IP ([…], time 7 day) was 7.7 mg/dL. For the same molecule, the K ([…], time 7 day) was 5 meq/L, the LDH ([…], time 7 day) was 98.8 IU/L and the Na ([…], time 7 day) was 139 meq/L. The PL ([…], time 7 day) was 164.6 mg/dL, the RALB ([…], time 7 day) was 3.9 g/dL and the TBIL ([…], time 7 day) was 0.3 mg/dL. For the same molecule, the TC ([…], time 7 day) was 99.6 mg/dL, the TG ([…], time 7 day) was 36 mg/dL and the TP ([…], time 7 day) was 5.9 g/dL. For the same molecule, the gamma-GTP ([…], time 7 day) was 1 IU/L, the A/G ([…], time 14 day) was 2 and the ALP ([…], time 14 day) was 739.4 IU/L. The ALT ([…], time 14 day) was 34 IU/L, the AST ([…], time 14 day) was 53.8 IU/L and the BUN ([…], time 14 day) was 19.6 mg/dL. It also gave a CRE ([…], time 14 day) of 0.5 mg/dL, a Ca ([…], time 14 day) of 11.1 mg/dL and a Cl ([…], time 14 day) of 105.4 meq/L. The DBIL ([…], time 14 day) was 0.068 mg/dL, the GLC ([…], time 14 day) was 194 mg/dL and the IP ([…], time 14 day) was 6.8 mg/dL. The K ([…], time 14 day) was 4.8 meq/L, the LDH ([…], time 14 day) was 81.2 IU/L and the Na ([…], time 14 day) was 138.6 meq/L. The PL ([…], time 14 day) was 212.4 mg/dL, the RALB ([…], time 14 day) was 4.2 g/dL and the TBIL ([…], time 14 day) was 0.3 mg/dL. The TC ([…], time 14 day) was 115.8 mg/dL, the TG ([…], time 14 day) was 88.4 mg/dL and the TP ([…], time 14 day) was 6.4 g/dL. The gamma-GTP ([…], time 14 day) was 1 IU/L, the A/G ([…], time 28 day) was 1.7 and the ALP ([…], time 28 day) was 603 IU/L. The ALT ([…], time 28 day) was 41.8 IU/L, the AST ([…], time 28 day) was 52 IU/L and the BUN ([…], time 28 day) was 21 mg/dL. The CRE ([…], time 28 day) was 0.6 mg/dL, the Ca ([…], time 28 day) was 11 mg/dL and the Cl ([…], time 28 day) was 105.2 meq/L. For the same molecule, the DBIL ([…], time 28 day) was 0.022 mg/dL, the GLC ([…], time 28 day) was 183.4 mg/dL and the IP ([…], time 28 day) was 6.4 mg/dL. For the same molecule, the K ([…], time 28 day) was 4.4 meq/L, the LDH ([…], time 28 day) was 66.2 IU/L and the Na ([…], time 28 day) was 139.4 meq/L. The PL ([…], time 28 day) was 195.6 mg/dL, the RALB ([…], time 28 day) was 4.3 g/dL and the TBIL ([…], time 28 day) was 0.3 mg/dL. For the same molecule, the TC ([…], time 28 day) was 99.2 mg/dL, the TG ([…], time 28 day) was 104 mg/dL and the TP ([…], time 28 day) was 6.9 g/dL. It also gave a gamma-GTP ([…], time 28 day) of 1.6 IU/L.
